Structures can show the parent of a compound that is named as a salt.
What was measured:
[1] = Plasma stability, beagle dog plasma (K2EDTA); assay type: in vitro ADME; conditions: 2 μM; for % Remaining at T120 / half-life at 2 μM: beagle dog plasma, anti-coagulant K2-EDTA; for % Remaining at T120: 120 min; for half-life at 2 μM: read-out: T1/2
Method: (§1) Individual stock solutions of propantheline and lovastatin were prepared at 10 mM in DMSO and were further diluted to 2 mM with DMSO.
(§2) Frozen matrices (Balb/c mouse, Wistar Han rat, Beagle dog, and human plasma containing K2EDTA as anti-coagulant) were thawed and centrifuged at 3100 rpm for 10 minutes at 4° C. to remove particulates. The lipid layer was then removed, and the supernatant was transferred to a new tube without disturbing the pellet. After the matrices were incubated at 37° C. for at least 10 minutes, the pH of each matrix was adjusted to pH 7.4, using 10% phosphoric acid or 1N sodium hydroxide as necessary. Test and control article stock solutions were spiked (2 μL) into matrix (1.998 mL) and mixed to final assay concentration of […]. Duplicate 30-μL aliquots of spiked plasma were transferred to matrix tubes in 96-well plate immediately after spiking for timepoints of 0, 30, 60, 120, 240, and 360 minutes. These tubes were then incubated at 37° C. with shaking and at each timepoint, the corresponding tubes containing samples were quenched with 180 μL of cold acetonitrile containing the internal standards. The quenched samples were vortex-mixed briefly and stored refrigerated. After the final time point (360 minutes), the plates with all quenched samples were vortex-mixed for 10 minutes and then centrifuged at 3100 rpm for 10 minutes at 4° C. to sediment the precipitated protein. The supernatant (50 μL) was transferred to a clean 96-well plate and diluted with 100 μL of water. The plates were stored refrigerated until analysis.
(§3) Data Analysis: Peak area ratios for IS-normalized test article and control article counts were used to calculate the percent remaining relative to the time zero (T0) value. As appropriate, results were plotted and further analyzed to calculate half-life (T1/2) values.
(§4) Mean peak area ratios were used to calculate the % remaining relative to the T0 value:
(§5) In this study, human, cynomolgus monkey, beagle dog, wistar hannover rat, and balb/c plasma stability was determined. Table 28 describes the results of the human plasma stability at 2 μM concentration and anti-coagulant K2-EDTA from 10 to 120 min. Table 29 describes the results of the cynomolgus monkey plasma stability at 2 μM concentration and anti-coagulant K2-EDTA. Table 30 describes the results of the beagle dog plasma stability at 2 μM concentration and anti-coagulant K2-EDTA. Table 31 describes the results of the wistar hannover rat plasma stability at 2 μM concentration and anti-coagulant K2-EDTA. Table 32 describes the results of the balb/c plasma stability at 2 μM concentration and anti-coagulant K2-EDTA.

balb/c mouse hepatocytes = experiment: Hepatocyte stability, balb/c mouse; assay type: in vitro ADME; conditions: 2 μM, 0.5 million cells/ml
Method: (§6) In this study, human, cynomolgus monkey, beagle dog, wistar hannover rat, and balb/c mouse hepatocyle stability was determined.

[2] = Plasma stability, mouse plasma (Balb/c; Table 5 head CD-1 Mouse); assay type: in vitro ADME; conditions: balb/c plasma, 2 μM, anti-coagulant K2-EDTA; for % Remaining at T120: 120 min; for half-life at 2 μM: mouse, pH 7.4, read-out: T1/2
Method: as §1, §2, §3, §4, §5

human hepatocytes = experiment: Hepatocyte stability, human; assay type: in vitro ADME; conditions: 2 μM, 0.5 million cells/ml, 120 min
Method: as §6

[3] = Hepatocyte stability, human; assay type: in vitro ADME; conditions: 0.5 million cells/ml; for half-life at 2 μM: human hepatocytes, 120 min; for CLint scaled at 2 μM: human, hepatocytes
Method: as §6

CYP3A4 = CYP3A4 (Homo sapiens, UniProt P08684); experiment: CYP450 panel inhibition in human liver microsomes, 3A4 (midazolam / testosterone); conditions: 10 μM; for CYP-3A4 (Testosterone) mean percentage CYP inhibition: substrate testosterone; for CYP-3A4 (Midazolam) mean percentage CYP inhibition: substrate midazolam
Chain of CYP3A4 (P08684 whole entry): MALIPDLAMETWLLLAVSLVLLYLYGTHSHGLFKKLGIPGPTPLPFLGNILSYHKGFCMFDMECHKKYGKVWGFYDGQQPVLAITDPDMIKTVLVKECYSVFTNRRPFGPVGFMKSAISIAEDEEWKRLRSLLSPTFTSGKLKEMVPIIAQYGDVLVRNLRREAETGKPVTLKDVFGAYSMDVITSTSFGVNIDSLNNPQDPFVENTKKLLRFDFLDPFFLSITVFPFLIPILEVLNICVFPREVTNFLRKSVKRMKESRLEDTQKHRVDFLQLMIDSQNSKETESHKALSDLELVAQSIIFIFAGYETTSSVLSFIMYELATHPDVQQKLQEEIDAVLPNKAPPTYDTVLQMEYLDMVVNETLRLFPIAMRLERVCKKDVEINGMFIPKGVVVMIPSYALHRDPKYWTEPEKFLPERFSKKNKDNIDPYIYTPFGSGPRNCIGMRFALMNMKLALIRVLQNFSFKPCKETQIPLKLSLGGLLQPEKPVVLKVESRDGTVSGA

Caco-2 cells = experiment: Caco-2 bidirectional permeability (absorption & efflux); conditions: Example 47
[4] = Hepatocyte stability, cynomolgus monkey; assay type: in vitro ADME; conditions: 0.5 million cells/ml; for half-life at 2 μM: cynomolgus monkey hepatocytes; for CLint scaled at 2 μM: cynomolgus monkey, hepatocytes
Method: as §6

[5] = test system: cynomolgus monkey hepatocytes; experiment: Hepatocyte stability, cynomolgus monkey; assay type: in vitro ADME; conditions: 2 μM, 0.5 million cells/ml
Method: as §6

[6] = Plasma stability, rat plasma (Wistar Han / wistar hannover; Table 5 head SD Rat); assay type: in vitro ADME; conditions: wistar hannover rat plasma, 2 μM, anti-coagulant K2-EDTA; for half-life at 2 μM: pH 7.4, read-out: T1/2; for % Remaining at T120: 120 min
Method: as §1, §2, §3, §4, §5

beagle dog hepatocytes = experiment: Hepatocyte stability, beagle dog; assay type: in vitro ADME; conditions: 2 μM, 0.5 million cells/ml
Method: as §6

PAMPA (pH 7.4) = assay type: in vitro ADME; conditions: PAMPA
Method: Each stock solution was diluted to 50 M in pH 7.4 Prisma HT buffer (pION) and 200 μl was added to each well of the donor plate in triplicate. The polyvinylidene fluoride (PVDF, 0.45 μm) filter membrane on the acceptor plate was coated with 5 μl gastrointestinal tract lipid formulation (GIT-0, pION) and to each well of the acceptor plate, 200 μl of acceptor sink buffer (pION) was added. The acceptor filter plate was then carefully placed on top of the donor plate to form a sandwich. The sandwich was incubated at 25° C. for 4 h without stirring. UV-vis spectra of the solutions in the blank, reference, acceptor and donor plates were measured using a microplate reader (Tecan Infinite 200PRO M Nano Plus). Permeability values were calculated using the PAMPA explorer software v.

[7] = test system: wistar hannover rat hepatocytes; experiment: Hepatocyte stability, wistar hannover rat; assay type: in vitro ADME; conditions: 2 μM, 0.5 million cells/ml
Method: as §6

[8] = read-out: CLint (L/hr/kg) (converted)

Row | SMILES | % Remaining at T120 [1] [%] | half-life at 2 μM ([1]; pH 7.4) [h] | % Remaining At T120 (balb/c mouse hepatocytes) [%] | % Remaining at T120 [2] [%] | half-life at 2 μM [2] [h] | % Remaining At T120 (human hepatocytes) [%] | half-life at 2 μM [3] [h] | CLint scaled at 2 μM [3, 8] [L/h/kg] | CLint scaled at 2 μM ([3]; read-out: CLint (mL/min/kg)) [L/h/kg] | CYP-3A4 (Testosterone) mean percentage CYP inhibition (CYP3A4) [%] | A − B Permeability Ranking (Caco-2 cells) | half-life at 2 μM [4] [h] | CLint scaled at 2 μM [4, 8] [L/h/kg] | CLint scaled at 2 μM ([4]; read-out: CLint (mL/min/kg)) [L/h/kg] | % Remaining At T120 [5] [%] | half-life at 2 μM [6] [h] | % Remaining at T120 [6] [%] | % Remaining At T120 (beagle dog hepatocytes) [%] | Papp at 4 h, 50 μM (PAMPA (pH 7.4); pH = 7.4 (Table 14)) [×10⁻⁶ cm/s] | % Remaining At T120 [7] [%] | further results
1 | CNS(=O)(=O)Nc1cccc(Cc2c(CN3CCNCC3)c3cc(Cl)c(OC(=O)N(C)C)cc3oc2=O)c1Cl [Compound 256, 6-chloro-3-(2-chloro-3-((N-methylsulfamoyl)amino)benzyl)-2-oxo-4-(piperazin-1-ylmethyl)-2H-chromen-7-yl dimethylcarbamate hydrochloride] | 99.4 | > 2 | 65.6 | 86.8 | 9.77 | 91.4 | 15.4 | 0.242 | 0.242 | 69.2 | Higher | 2.25 | 2.5 | 2.5 | 53.9 | 179 | 97.2 | 62.8 | 4 | 45.7 | 
2 | CNS(=O)(=O)Nc1cccc(Cc2c(CN(C)C)c3ccc(OC(=O)N(C)C)cc3oc2=O)c1Cl [Compound 274, 3-(2-chloro-3-((N-methylsulfamoyl)amino)benzyl)-4-((dimethylamino)methyl)-2-oxo-2H-chromen-7-yl dimethylcarbamate] | 100.5 | > 2 | 64.3 | 92.7 | 126 | 47.5 | 1.87 | 2.01 | 2.01 | 50.4 | Higher | 0.985 | 5.7 | 5.69 | 24.5 | 42.3 | 97.7 | 51.9 |  | 34.9 | CYP-3A4 (Midazolam) mean percentage CYP inhibition (CYP3A4): 20.1%
3 | CNS(=O)(=O)Nc1nccc(Cc2c(C)c3ccc(Oc4ncccn4)cc3oc2=O)c1F [Reference-2, reference compound] |  |  |  |  |  |  |  |  |  |  |  |  |  |  |  |  |  |  |  |  | Beagle Dog (% Reamining @2 hour) ([1]; plasma, 2 hour): 99.8%; Papp at 4 h, 50 μM (PAMPA (pH 7.4); pH = 7.4): 29 ×10⁻⁶ cm/s
4 | Cn1cnc2c(F)c(Nc3ccc(Br)cc3Cl)c(C(=O)NOCCO)cc21 [Reference-1, Selumetinib] |  |  |  |  |  |  |  |  |  |  |  |  |  |  |  |  |  |  |  |  | Beagle Dog (% Reamining @2 hour) ([1]; beagle, dog, 2 h, pH 7.4): 100.4%; Papp at 4 h, 50 μM (PAMPA (pH 7.4); pH = 7.4): 29 ×10⁻⁶ cm/s
5 | CNS(=O)(=O)Nc1cccc(Cc2c(CN3CCNCC3)c3ccc(OC(=O)N(C)C)cc3oc2=O)c1Cl [Compound 246, 3-(2-chloro-3-((N-methylsulfamoyl)amino)benzyl)-2-oxo-4-(piperazin-1-ylmethyl)-2H-chromen-7-yl dimethylcarbamate hydrochloride] | 100.2 | 60.5 | 73.6 | 94.5 | 18.5 | 95.3 | 28.8 | 0.13 | 0.13 | 24.6 | Higher | 6.75 | 0.832 | 0.834 | 81.4 | > 2 | 99.3 | 79.6 | 2 | 63.0 | 
6 | CCN(C)Cc1c(Cc2cccc(NS(=O)(=O)NC)c2F)c(=O)oc2cc(OC(=O)N(C)C)c(F)cc12 [Compound 238] | 93.8 | 23.2 | 57.3 | 57.5 | 2.67 | 27.3 | 1.07 | 3.51 | 3.5 |  | Higher | 0.953 | 5.89 | 5.89 | 23.3 | 29.8 | 95.5 | 31.1 | 62 | 23.0 | 
7 | CCS(=O)(=O)Nc1cccc(Cc2c(CN3CCNCC3)c3cc(Cl)c(OC(=O)N(C)C)cc3oc2=O)c1Cl [Compound 257, 6-chloro-3-(2-chloro-3-(ethylsulfonamido)benzyl)-2-oxo-4-(piperazin-1-ylmethyl)-2H-chromen-7-yl dimethylcarbamate hydrochloride] | 100.9 | > 2 | 66.7 | 87.5 | 9.77 | 89.1 | 12 | 0.312 | 0.313 | 66.0 | Higher | 2.98 | 1.88 | 1.88 | 62.8 | 16.9 | 91.5 | 47.8 | 8 | 45.4 | 
8 | CCN(C)Cc1c(Cc2cccc(NS(=O)(=O)NC)c2Cl)c(=O)oc2cc(OC(=O)N(C)C)ccc12 [Compound 245, 3-(2-chloro-3-((N-methylsulfamoyl)amino)benzyl)-4-((ethyl(methyl)amino)methyl)-2-oxo-2H-chromen-7-yl dimethylcarbamate] | 104.1 | > 2 | 52.8 | 81.9 | 7.98 | 13.9 | 0.703 | 5.32 | 5.32 | 72.8 | Higher | 0.407 | 13.8 | 13.8 | 3.3 | 32.2 | 96.6 | 23.4 | 53 | 15.7 | CYP-3A4 (Midazolam) mean percentage CYP inhibition (CYP3A4): 42.3%
